Laboratory results from publication PMC13223435, “Synthesis and Antiproliferative Activity against Melanoma Cells of New Heterocyclic Hybrids Based on Pyridine and Pyrimidine Scaffolds” (Current Medicinal Chemistry, 2025).

Biological target: T1, tubulin (Sus scrofa, UniProt P02550+P02554)
T1 construct: purchased Cytoskeleton, Denver, CO, USA
Assay: Cell free tubulin polymerization assay (fluorescence-based)
Assay type: biochemical
Description: The tubulin polymerization process was evaluated using a tubulin (>99% pure) and fluorescence-based tubulin polymerization kit (Cytoskeleton, Denver, CO, USA). The effects of compounds 16b and 29 (at final concentrations of 1, 10, 50, 100 µM) on tubulin polymerization were evaluated in cell-free conditions. Paclitaxel (PTX) and vinblastine (VBL) (3 µM) were used as references, and DMSO (0.2%) was used as the vehicle control. This assay tracks the process of tubulin polymerization through an increase in fluorescence resulting from the addition of a fluorescence reporter to microtubules as polymerization occurs. After incubating the tested compounds at 37°C for 1 minute, the icy tubulin reaction mixture (2 mg/mL tubulin, 1.0 mM GTP, 15% glycerol in buffer containing 80 mM PIPES, 2.0 mM MgCl2, 0.5 mM EGTA, pH 6.9, and 10 µM fluorescent reporter) was added to the samples, which were then mixed and monitored using a spectrophotometric microplate reader (Infinite 200 Pro, Tecan) at 1-minute intervals for 90 minutes at 37°C (excitation: 360 nm, emission: 450 nm). The software installed on the plate reader was used to compute the maximum slope (Vmax) of the growth phase, measured in RFU/min, as outlined in the manufacturer's instructions. Each polymerization curve's Vmax was then standardized against the control curve's Vmax. The IC50 values were determined using an online tool (AAT Bioquest, Inc., Quest Graph™ IC50 Calculator ((v.1). Retrieved from https://www.aatbio.com/tools/IC50-calculator-v1, accessed on: 2024, May 6).

T1 sequence (P02554 whole entry): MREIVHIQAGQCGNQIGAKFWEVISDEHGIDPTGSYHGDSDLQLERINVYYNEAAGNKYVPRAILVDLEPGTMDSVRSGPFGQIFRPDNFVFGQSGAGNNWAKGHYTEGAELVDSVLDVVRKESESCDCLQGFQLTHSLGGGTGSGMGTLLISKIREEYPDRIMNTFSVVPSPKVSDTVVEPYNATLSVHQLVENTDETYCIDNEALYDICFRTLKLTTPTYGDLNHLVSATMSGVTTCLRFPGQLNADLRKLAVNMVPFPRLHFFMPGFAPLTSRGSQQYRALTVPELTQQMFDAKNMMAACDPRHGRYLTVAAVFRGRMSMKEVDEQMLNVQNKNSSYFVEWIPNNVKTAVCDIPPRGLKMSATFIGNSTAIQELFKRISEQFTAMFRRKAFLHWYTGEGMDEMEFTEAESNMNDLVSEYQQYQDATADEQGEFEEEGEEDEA
T1 sequence (P02550 whole entry): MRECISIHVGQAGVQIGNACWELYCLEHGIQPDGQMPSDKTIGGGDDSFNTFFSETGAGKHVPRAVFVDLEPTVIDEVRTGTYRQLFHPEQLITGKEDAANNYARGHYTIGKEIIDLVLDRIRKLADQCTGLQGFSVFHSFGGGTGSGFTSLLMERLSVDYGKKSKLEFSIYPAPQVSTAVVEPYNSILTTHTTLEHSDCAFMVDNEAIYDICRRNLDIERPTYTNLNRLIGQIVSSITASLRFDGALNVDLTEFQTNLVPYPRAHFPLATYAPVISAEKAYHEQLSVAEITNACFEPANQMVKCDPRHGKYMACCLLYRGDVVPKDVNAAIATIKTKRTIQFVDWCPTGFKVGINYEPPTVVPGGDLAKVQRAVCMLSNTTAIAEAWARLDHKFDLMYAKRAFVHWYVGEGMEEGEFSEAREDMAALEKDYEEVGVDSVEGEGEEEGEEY

COc1cc(Cn2cc(-c3cccs3)ccc2=S)cc(OC)c1OC [Compound 16b]
effect on tubulin polymerization (100 µM): acted as tubulin polymerization inhibitors | IC50 (Vmax normalised to control, read-out: tubulin polymerization inhibition IC50): 37.3 ± 10.9 µM
